Literature values, collected in PMC12122562, “Phase 1 studies of the indenoisoquinolines LMP776 and LMP744 in patients with solid tumors and lymphomas” (Cancer Chemotherapy and Pharmacology, 2025).
Where two headings read alike, the source gives them in different places.

Experiments:
[1] = system: patients with advanced solid tumors; details: cited from earlier work
advanced solid tumors = system: advanced solid tumors; set-up: method as in PMID 27169793; details: cited from earlier work
[2] = system: PTEN-null glioblastoma cells; set-up: method as in PMID 37706203; details: combined with the PARP inhibitor niraparib; cited from earlier work
[3] = system: naturally occurring lymphomas; set-up: method as in PMID 30061364; details: canines with lymphomas; cited from earlier work

COc1cc2c3c(n(CCCN4CCOCC4)c(=O)c2cc1OC)-c1cc2c(cc1C3=O)OCO2 [LMP400]
Nausea, prevalence [1]: 5%
Alanine aminotransferase increased, patients ([1]; grade 2, n=21, ref 1 (suppl.)): 3
Anemia, patients ([1]; grade 2, n=21, ref 1 (suppl.)): 8
Aspartate aminotransferase increased, patients ([1]; grade 2, n=21, ref 1 (suppl.)): 2
Blood bilirubin increased, patients ([1]; grade 2, n=21, ref 1 (suppl.)): 2
Diarrhea, patients ([1]; grade 2, n=21, ref 1 (suppl.)): 1
Dyspepsia, patients ([1]; grade 2, n=21, ref 1 (suppl.)): 1
Fatigue, patients ([1]; grade 2, n=21, ref 1 (suppl.)): 3
Hyperkalemia, patients ([1]; grade 2, n=21, ref 1 (suppl.)): 1
Hypophosphatemia, patients ([1]; grade 2, n=21, ref 1 (suppl.)): 1
Lethargy, patients ([1]; grade 2, n=21, ref 1 (suppl.)): 1
Lymphocyte count decreased, patients ([1]; grade 2, n=21, ref 1 (suppl.)): 4
Nausea, patients ([1]; grade 2, n=21, ref 1 (suppl.)): 1
Neutropenia, patients ([1]; grade 2, n=21, ref 1 (suppl.)): 1
Weight loss, patients ([1]; grade 2, n=21, ref 1 (suppl.)): 1
White blood cell count decreased, patients ([1]; grade 2, n=21, ref 1 (suppl.)): 1
Anemia, patients ([1]; grade 3, n=21, ref 1 (suppl.)): 2
Fatigue, patients ([1]; grade 3, n=21, ref 1 (suppl.)): 1
Febrile Neutropenia, patients ([1]; grade 3, n=21, ref 1 (suppl.)): 2
Lymphocyte count decreased, patients ([1]; grade 3, n=21, ref 1 (suppl.)): 3
White blood cell count decreased, patients ([1]; grade 3, n=21, ref 1 (suppl.)): 1
Neutropenia, patients ([1]; grade 4, n=21, ref 1 (suppl.)): 3
Platelet count decreased, patients ([1]; grade 4, n=21, ref 1 (suppl.)): 3
White blood cell count decreased, patients ([1]; grade 4, n=21, ref 1 (suppl.)): 2
Best response (advanced solid tumors): stable disease
Cell killing activity in combination [2]: synergistic cell killing activity
Responders [3]: 9 of 27
Response rate [3]: 33.3%
